System: MV-4-11 cells
Experiment: Gene expression microarray analysis (Affymetrix PrimeView) and GSEA
Type: cell-based, human
Set-up: RFU PODN (11730768_x_at) / Fold change /veh PODN (11730768_x_at) / RFU LINC00158 (11744669_a_at) / Fold change /veh LINC00158 (11744669_a_at) / RFU DUSP10 (11751237_a_at) / Fold change /veh DUSP10 (11751237_a_at) / RFU ID3 (11757404_x_at) / Fold change /veh ID3 (11757404_x_at) / RFU PLEKHG5 (11737974_s_at) / Fold change /veh PLEKHG5 (11737974_s_at) / RFU LRRC4B (11730491_at) / Fold change /veh LRRC4B (11730491_at) / RFU GIMAP4 (11747438_a_at) / Fold change /veh GIMAP4 (11747438_a_at) / RFU KRT8 (11758183_x_at) / Fold change /veh KRT8 (11758183_x_at) / RFU CNN1 (11734310_a_at) / Fold change /veh CNN1 (11734310_a_at) / RFU VPS37D (11726825_at) / Fold change /veh VPS37D (11726825_at) / RFU C10orf10 (11716522_x_at) / Fold change /veh C10orf10 (11716522_x_at) / RFU KIR2DL2 /// KIR2DL4 /// KIR2DL5A /// KIR2DL5B /// KIR2DS1 /// KIR2DS2 /// KIR2DS3 /// KIR2DS4 /// KIR3DL3 /// KIR3DL3 /// KIR3DS1 (11738374_at) / Fold change /veh KIR2DL2 /// KIR2DL4 /// KIR2DL5A /// KIR2DL5B /// KIR2DS1 /// KIR2DS2 /// KIR2DS3 /// KIR2DS4 /// KIR3DL3 /// KIR3DL3 /// KIR3DS1 (11738374_at) / RFU C1QL1 (11718748_at) / Fold change /veh C1QL1 (11718748_at) / RFU TMPRSS4 (11747572_a_at) / Fold change /veh TMPRSS4 (11747572_a_at) / RFU HAMP (11756126_x_at) / Fold change /veh HAMP (11756126_x_at) / RFU RNFT2 (11725882_a_at) / Fold change /veh RNFT2 (11725882_a_at) / RFU NR4A2 (11747474_a_at) / Fold change /veh NR4A2 (11747474_a_at) / RFU ABCC12 (11746883_a_at) / Fold change /veh ABCC12 (11746883_a_at) / RFU TMEM136 (11760407_x_at) / Fold change /veh TMEM136 (11760407_x_at) / RFU CLDN22 /// WWC2 (11732394_at) / Fold change /veh CLDN22 /// WWC2 (11732394_at) / RFU HLA-DPB1 (11760878_x_at) / Fold change /veh HLA-DPB1 (11760878_x_at) / RFU SPINT1 (11716480_a_at) / Fold change /veh SPINT1 (11716480_a_at) / RFU GAP43 (11754022_s_at) / Fold change /veh GAP43 (11754022_s_at) / RFU A4GNT (11735810_at) / Fold change /veh A4GNT (11735810_at) / RFU PRB3 (11715151_x_at) / Fold change /veh PRB3 (11715151_x_at) / RFU TUBB4B (11761932_at) / Fold change /veh TUBB4B (11761932_at) / RFU CAPN14 (11732068_a_at) / Fold change /veh CAPN14 (11732068_a_at) / RFU TMCC2 (11721928_a_at) / Fold change /veh TMCC2 (11721928_a_at) / RFU IRGQ (11745062_a_at) / Fold change /veh IRGQ (11745062_a_at) / RFU FAM174B (11720279_a_at) / Fold change /veh FAM174B (11720279_a_at) / RFU TMPRSS4 (11748680_a_at) / Fold change /veh TMPRSS4 (11748680_a_at) / RFU FAM212B (11763350_a_at) / Fold change /veh FAM212B (11763350_a_at) / RFU PLEKHG5 (11743358_a_at) / Fold change /veh PLEKHG5 (11743358_a_at) / RFU ZSCAN30 (11745921_a_at) / Fold change /veh ZSCAN30 (11745921_a_at) / RFU CMKLR1 (11741424_a_at) / Fold change /veh CMKLR1 (11741424_a_at) / RFU LOC101060620 /// MAPK8IP1 (11723275_at) / Fold change /veh LOC101060620 /// MAPK8IP1 (11723275_at) / RFU SPTSSB (11747773_x_at) / Fold change /veh SPTSSB (11747773_x_at) / RFU PRSS12 (11739890_at) / Fold change /veh PRSS12 (11739890_at) / RFU BIN1 (11741810_x_at) / Fold change /veh BIN1 (11741810_x_at) / RFU WNT11 (11732464_a_at) / Fold change /veh WNT11 (11732464_a_at) / RFU C10orf10 (11716521_a_at) / Fold change /veh C10orf10 (11716521_a_at) / RFU C5orf56 (11738089_at) / Fold change /veh C5orf56 (11738089_at) / RFU CYB561 (11721691_x_at) / Fold change /veh CYB561 (11721691_x_at) / RFU ANKRD19P (11752326_a_at) / Fold change /veh ANKRD19P (11752326_a_at) / RFU OR2T12 /// OR2T33 /// OR2T8 (11738714_s_at) / Fold change /veh OR2T12 /// OR2T33 /// OR2T8 (11738714_s_at) / RFU VCAN (11748164_a_at) / Fold change /veh VCAN (11748164_a_at) / RFU JSRP1 (11732532_at) / Fold change /veh JSRP1 (11732532_at) / RFU KRTAP10-11 (11738290_x_at) / Fold change /veh KRTAP10-11 (11738290_x_at) / RFU MYO3A (11730013_a_at) / Fold change /veh MYO3A (11730013_a_at) / RFU EBF3 (11725865_a_at) / Fold change /veh EBF3 (11725865_a_at) / RFU CAMK2N1 (11719241_x_at) / Fold change /veh CAMK2N1 (11719241_x_at) / RFU C5orf56 (11738088_a_at) / Fold change /veh C5orf56 (11738088_a_at) / RFU OLFML3 (11715873_a_at) / Fold change /veh OLFML3 (11715873_a_at) / RFU LOC100653217 /// NTM (11731650_a_at) / Fold change /veh LOC100653217 /// NTM (11731650_a_at) / RFU MAPK11 (11762145_a_at) / Fold change /veh MAPK11 (11762145_a_at) / RFU FIZ1 (11724087_x_at) / Fold change /veh FIZ1 (11724087_x_at) / RFU OASL (11726364_x_at) / Fold change /veh OASL (11726364_x_at) / RFU SOX15 (11748057_x_at) / Fold change /veh SOX15 (11748057_x_at) / RFU CD79A (11719716_a_at) / Fold change /veh CD79A (11719716_a_at) / RFU HIST1H1D (11736915_at) / Fold change /veh HIST1H1D (11736915_at) / RFU CASKIN2 (11723855_a_at) / Fold change /veh CASKIN2 (11723855_a_at) / RFU LOC730098 (11760151_x_at) / Fold change /veh LOC730098 (11760151_x_at) / RFU OR4N2 (11742367_at) / Fold change /veh OR4N2 (11742367_at) / RFU PRRT2 (11749266_a_at) / Fold change /veh PRRT2 (11749266_a_at) / RFU SNX32 (11753110_a_at) / Fold change /veh SNX32 (11753110_a_at) / RFU CDHR5 (11726645_a_at) / Fold change /veh CDHR5 (11726645_a_at) / RFU RCAN1 (11760418_a_at) / Fold change /veh RCAN1 (11760418_a_at) / RFU FAM167A (11723789_a_at) / Fold change /veh FAM167A (11723789_a_at) / RFU FAM26E (11764081_at) / Fold change /veh FAM26E (11764081_at) / RFU ISYNA1 (11749810_s_at) / Fold change /veh ISYNA1 (11749810_s_at) / RFU ACY1 (11761880_at) / Fold change /veh ACY1 (11761880_at) / RFU 11764098_at / Fold change /veh 11764098_at / RFU SAMD14 (11745864_x_at) / Fold change /veh SAMD14 (11745864_x_at) / RFU NPB (11741838_a_at) / Fold change /veh NPB (11741838_a_at) / RFU TMPRSS6 (11731388_a_at) / Fold change /veh TMPRSS6 (11731388_a_at) / RFU KRTAP10-2 (11738614_at) / Fold change /veh KRTAP10-2 (11738614_at) / RFU ARHGAP8 /// PRR5-ARHGAP8 (11727945_x_at) / Fold change /veh ARHGAP8 /// PRR5-ARHGAP8 (11727945_x_at) / RFU KRTAP5-7 /// NADSYN1 (11734609_at) / Fold change /veh KRTAP5-7 /// NADSYN1 (11734609_at) / RFU RASL12 (11751679_a_at) / Fold change /veh RASL12 (11751679_a_at) / RFU CDKN2B (11736163_a_at) / Fold change /veh CDKN2B (11736163_a_at) / RFU PRF1 (11729649_at) / Fold change /veh PRF1 (11729649_at) / RFU, ZNF638 /// ZNF638-IT1 / Fold change vs veh, ZNF638 /// ZNF638-IT1 / RFU, PANK3 / Fold change vs veh, PANK3 / RFU, SH3YL1 / Fold change vs veh, SH3YL1 / RFU, ZEB2 / Fold change vs veh, ZEB2 / RFU, NRIP1 / Fold change vs veh, NRIP1 / RFU, PTTG1IP / Fold change vs veh, PTTG1IP / RFU, CAPN2 / Fold change vs veh, CAPN2 / RFU, MED14 / Fold change vs veh, MED14 / RFU, SNORA58 / Fold change vs veh, SNORA58 / RFU, C1orf63 / Fold change vs veh, C1orf63 / RFU, LRRFIP1 / Fold change vs veh, LRRFIP1 / RFU, NDUFAF7 / Fold change vs veh, NDUFAF7 / RFU, SLC12A2 / Fold change vs veh, SLC12A2 / RFU, IBTK / Fold change vs veh, IBTK / RFU, ESF1 / Fold change vs veh, ESF1 / Fold change vs veh, TMEM50B / RFU, TAOK1 / Fold change vs veh, TAOK1 / RFU, ACBD3 / Fold change vs veh, ACBD3 / RFU, TMA16 / Fold change vs veh, TMA16 / RFU, RWDD3 / Fold change vs veh, RWDD3 / RFU, BCAT1 / Fold change vs veh, BCAT1 / RFU, EDEM3 / Fold change vs veh, EDEM3 / RFU, TMEM33 / Fold change vs veh, TMEM33 / RFU, WDR75 / Fold change vs veh, WDR75 / RFU, AHCTF1 / Fold change vs veh, AHCTF1 / RFU, TFRC / Fold change vs veh, TFRC / RFU, ZDHHC17 / Fold change vs veh, ZDHHC17 / RFU, NOM1 / Fold change vs veh, NOM1 / RFU, ARL8B / Fold change vs veh, ARL8B / RFU, ZBTB11 / Fold change vs veh, ZBTB11 / RFU, TAMM41 / Fold change vs veh, TAMM41 / RFU, KIAA1704 /// LOC100996395 / Fold change vs veh, KIAA1704 /// LOC100996395 / RFU, ING1 / Fold change vs veh, ING1 / RFU, TRMT61B / Fold change vs veh, TRMT61B / RFU, FUBP3 / Fold change vs veh, FUBP3 / RFU, TP53 / Fold change vs veh, TP53 / RFU, TNKS2 / Fold change vs veh, TNKS2 / RFU, ZFP14 / Fold change vs veh, ZFP14 / RFU, ACTR2 / Fold change vs veh, ACTR2 / RFU, PPP3R1 / Fold change vs veh, PPP3R1 / RFU, PIK3R1 / Fold change vs veh, PIK3R1 / RFU, HNRNPA1 / Fold change vs veh, HNRNPA1 / RFU, RNF170 / Fold change vs veh, RNF170 / RFU, ZNF28 / Fold change vs veh, ZNF28 / RFU, RNGTT / Fold change vs veh, RNGTT / RFU, OGT / Fold change vs veh, OGT / RFU, BRD1 / Fold change vs veh, BRD1 / RFU, MARS / Fold change vs veh, MARS / RFU, ZNF655 / Fold change vs veh, ZNF655 / RFU, FAHD1 / Fold change vs veh, FAHD1 / RFU, BDP1 / Fold change vs veh, BDP1 / RFU, LRRCC1 / Fold change vs veh, LRRCC1 / RFU, ARID1A / Fold change vs veh, ARID1A / RFU, ZNF146 / Fold change vs veh, ZNF146 / RFU, ZNF330 / Fold change vs veh, ZNF330 / RFU, GPN3 / Fold change vs veh, GPN3 / RFU, C9orf123 / Fold change vs veh, C9orf123 / RFU, N4BP2L2 / Fold change vs veh, N4BP2L2 / RFU, ARFIP1 / Fold change vs veh, ARFIP1 / RFU, FAM179B / Fold change vs veh, FAM179B / RFU, BCL10 / Fold change vs veh, BCL10 / RFU, UHRF1BP1L / Fold change vs veh, UHRF1BP1L / RFU, BET1 / Fold change vs veh, BET1 / RFU, CNOT2 / Fold change vs veh, CNOT2 / RFU, ZNF268 / Fold change vs veh, ZNF268 / Fold change vs veh, ZNF507 / RFU, DGCR2 / Fold change vs veh, DGCR2 / RFU, WDSUB1 / Fold change vs veh, WDSUB1 / Fold change vs veh, HSP90B1 /// MIR3652 / RFU, ADSS / Fold change vs veh, ADSS / RFU, GK / Fold change vs veh, GK / RFU, ZNF148 / Fold change vs veh, ZNF148 / RFU, TAF9 / Fold change vs veh, TAF9 / RFU, SLC1A5 / Fold change vs veh, SLC1A5 / RFU, SLMO2 / Fold change vs veh, SLMO2 / RFU, ABCC4 / Fold change vs veh, ABCC4 / RFU, LOC101060439 /// RAP1B / Fold change vs veh, LOC101060439 /// RAP1B / RFU, RFX7 / Fold change vs veh, RFX7 / RFU, GTPBP10 / Fold change vs veh, GTPBP10 / RFU, CNEP1R1 / Fold change vs veh, CNEP1R1 / RFU, BIVM-ERCC5 /// ERCC5 / Fold change vs veh, BIVM-ERCC5 /// ERCC5 / RFU, ILF3 / Fold change vs veh, ILF3 / RFU 11762660_at / Fold change /veh 11762660_at / RFU VCAN (11757783_s_at) / Fold change /veh VCAN (11757783_s_at) / RFU DDX43 (11728927_at) / Fold change /veh DDX43 (11728927_at) / RFU KRT8 (11758188_x_at) / Fold change /veh KRT8 (11758188_x_at) / RFU NKD1 (11759106_at) / Fold change /veh NKD1 (11759106_at) / RFU SRD5A1 (11742802_a_at) / Fold change /veh SRD5A1 (11742802_a_at) / RFU TPSAB1 /// TPSB2 (11721975_s_at) / Fold change /veh TPSAB1 /// TPSB2 (11721975_s_at) / RFU GSTM3 (11746129_a_at) / Fold change /veh GSTM3 (11746129_a_at) / RFU IL23R (11737362_x_at) / Fold change /veh IL23R (11737362_x_at) / RFU TMEM51 (11727254_a_at) / Fold change /veh TMEM51 (11727254_a_at) / RFU PIWIL2 (11732686_x_at) / Fold change /veh PIWIL2 (11732686_x_at) / RFU ORM1 (11744905_x_at) / Fold change /veh ORM1 (11744905_x_at) / RFU CCDC152 (11743942_at) / Fold change /veh CCDC152 (11743942_at) / RFU ECM1 (11717891_a_at) / Fold change /veh ECM1 (11717891_a_at) / RFU IL23R (11748794_a_at) / Fold change /veh IL23R (11748794_a_at) / RFU TNFAIP8L3 (11732012_x_at) / Fold change /veh TNFAIP8L3 (11732012_x_at) / RFU MBOAT4 (11741988_at) / Fold change /veh MBOAT4 (11741988_at) / RFU 11764193_at / Fold change /veh 11764193_at / RFU TMEM53 (11763286_at) / Fold change /veh TMEM53 (11763286_at) / RFU MAGEB2 (11727129_at) / Fold change /veh MAGEB2 (11727129_at) / RFU TMEM200A (11744735_a_at) / Fold change /veh TMEM200A (11744735_a_at) / RFU CCDC152 (11751479_a_at) / Fold change /veh CCDC152 (11751479_a_at) / RFU FAM211A (11726209_a_at) / Fold change /veh FAM211A (11726209_a_at) / RFU RGS16 (11746705_a_at) / Fold change /veh RGS16 (11746705_a_at) / RFU VCAN (11755009_s_at) / Fold change /veh VCAN (11755009_s_at) / RFU RHOB (11743442_s_at) / Fold change /veh RHOB (11743442_s_at) / RFU RGS16 (11720943_a_at) / Fold change /veh RGS16 (11720943_a_at) / RFU RGS16 (11720944_at) / Fold change /veh RGS16 (11720944_at) / RFU, VPS4B / Fold change vs veh, VPS4B / RFU, CREB1 / Fold change vs veh, CREB1 / RFU, DNAJC13 / Fold change vs veh, DNAJC13 / RFU, GNAQ / Fold change vs veh, GNAQ / RFU, CDK5R1 / Fold change vs veh, CDK5R1 / RFU, ZRANB3 / Fold change vs veh, ZRANB3 / RFU, CUL4A / Fold change vs veh, CUL4A / RFU, CCNY / Fold change vs veh, CCNY / RFU, UFL1 / Fold change vs veh, UFL1 / RFU, COG3 / Fold change vs veh, COG3 / RFU, DIAPH2 / Fold change vs veh, DIAPH2 / RFU, SKA2 / Fold change vs veh, SKA2 / RFU, AFF3 / Fold change vs veh, AFF3 / RFU, LMF1 / Fold change vs veh, LMF1 / RFU, IPO11 / Fold change vs veh, IPO11 / RFU, DFFB / Fold change vs veh, DFFB / RFU, FOXP1 / Fold change vs veh, FOXP1 / RFU, CARD8 / Fold change vs veh, CARD8 / RFU, STRN3 / Fold change vs veh, STRN3 / RFU, ADK / Fold change vs veh, ADK / RFU, RASSF2 / Fold change vs veh, RASSF2 / RFU, WIPF1 / Fold change vs veh, WIPF1 / RFU, LARP1B / Fold change vs veh, LARP1B / RFU, RASA1 / Fold change vs veh, RASA1 / RFU, RB1 / Fold change vs veh, RB1 / RFU, PPFIA1 / Fold change vs veh, PPFIA1 / RFU, MAT2A / Fold change vs veh, MAT2A / RFU, CCT5 / Fold change vs veh, CCT5 / RFU, WDR92 / Fold change vs veh, WDR92 / RFU, CUX1 / Fold change vs veh, CUX1 / RFU, TTC7A / Fold change vs veh, TTC7A / RFU, TMEM135 / Fold change vs veh, TMEM135 / RFU, DEPTOR / Fold change vs veh, DEPTOR / RFU, CPM / Fold change vs veh, CPM / RFU, DNAJB6 / Fold change vs veh, DNAJB6 / RFU, CACNA2D3 / Fold change vs veh, CACNA2D3 / RFU, DTX4 / Fold change vs veh, DTX4 / RFU, TFCP2 / Fold change vs veh, TFCP2 / RFU, GMCL1 /// GMCL1P1 / Fold change vs veh, GMCL1 /// GMCL1P1 / RFU, AEBP2 / Fold change vs veh, AEBP2 / RFU, SNHG1 /// SNORD22 /// SNORD25 /// SNORD26 /// SNORD27 /// SNORD28 /// SNORD29 /// SNORD31 / Fold change vs veh, SNHG1 /// SNORD22 /// SNORD25 /// SNORD26 /// SNORD27 /// SNORD28 /// SNORD29 /// SNORD31 / Fold change (Aza/veh), C12orf56 (ProbeSet 11735607_a_at) / Fold change (ACY-1035/veh), C12orf56 (ProbeSet 11735607_a_at) / Fold change (Aza/veh), FGFR1OP (ProbeSet 11751329_s_at) / Fold change (ACY-1035/veh), FGFR1OP (ProbeSet 11751329_s_at) / Fold change (Aza/veh), VPS36 (ProbeSet 11739960_a_at) / Fold change (ACY-1035/veh), VPS36 (ProbeSet 11739960_a_at) / RFU SYPL1 (11715823_x_at) / Fold change /veh SYPL1 (11715823_x_at) / RFU IGFBP7 (11715501_s_at) / Fold change /veh IGFBP7 (11715501_s_at) / RFU REEP3 (11722064_at) / Fold change /veh REEP3 (11722064_at) / RFU IGLL1 (11728026_x_at) / Fold change /veh IGLL1 (11728026_x_at): dose or concentration left out as unconfirmed
Details: ProbeSet 11743580_s_at; LIST B

Nc1ccc(-c2cccs2)cc1NC(=O)c1ccc2c(c1)cc(C1CC1)n2CCN1CCOCC1 [ACY-1035]
Fold change vs veh, ACTR2: 0.83
